Measured values reported in US20230382923A1, “FUSED TETRACYCLIC QUINAZOLINE DERIVATIVES AS INHIBITORS OF ERBB2” (EnLiven Therapeutics, Inc., priority 2021, published 2023).

What was measured:
[1] = target: phosphorylated ERBB2 (pERBB2) (Homo sapiens (Human), UniProt P04626); assay: Detection of phosphorylated ERBB2 (pERBB2) by ELISA in BT-474 cells; format: cell-based; conditions: four hours incubation with compound
Procedure: BT-474 cells were seeded into a 96-well at 2.0*10^4cells/100 μl/well. Compounds were dissolved and serially diluted in DMSO. The compounds were then were added, mixed, and incubated for four hours at 37° C., 5% CO2. […] Following the four hour incubation with compounds, cell lysates were prepared. Plates were centrifuged for 5 min at 3000 RPM, and supernatant was removed from each well. Cells were washed 3 times by resuspension in 150 μl PBS, followed by centrifugation and removal of the supernatant, as above. 100 μl of cell lysis buffer (Boston BioProducts, cat #BP-115D) supplied with 1×complete ULTRA cocktail inhibitor (Thermo ScientificTM, cat #78443) was then added to the washed cells. Cells were incubated with lysis buffer for 1 hour at 4° C., and then stored at -80° C. Enzyme-linked immunosorbent assays (ELISA) were performed to measure phosphorylated ERBB2 levels. […] The next day, plates were washed with PBS+0.05% Tween20 (PBST). 150 μl of 5% BSA blocking solution was added for 1 hour at room temperature, with shaking. Plates were washed with PBST. Cell lysates were thawed and 100 μl of lysate was added to the ELISA plate. The plates were incubated for 2 hours at room temperature, with shaking. ELISA plates were then washed with PBST and 100 μl of an HRP-labeled detection antibody that binds phosphorylated tyrosine (R&D Systems, cat #841913) was added to each well. Plates were incubated for 1 hour at room temperature, with shaking. Plates were then washed with PBST, and 100 μl TMB substrate solution (R&D Systems, cat #DY999) was added. Plate were incubated in the dark for 20 minutes at room temperature. 50 μl of Stop solution (R&D Systems, cat #DY994) (50 μl) was added to each well and mixed. […] The remaining kinase activity by calculated using the following formula: % Relative activity=100×([…]). The low and high control values (“LC” and “HC”) were generated from lysate from wells without cells or with cells treated with 0.1% DMSO, respectively.

[2] = target: phosphorylated EGFR (pEGFR) (Homo sapiens (Human), UniProt P00533); assay: Detection of phosphorylated EGFR (pEGFR) by AlphaLISA in A431 cells; format: cell-based; conditions: A431 cells (10% FBS), 4 hours incubation, EGF 30 ng/mL for 10 minutes
phosphorylated EGFR (pEGFR), sequence (P00533 25-1210): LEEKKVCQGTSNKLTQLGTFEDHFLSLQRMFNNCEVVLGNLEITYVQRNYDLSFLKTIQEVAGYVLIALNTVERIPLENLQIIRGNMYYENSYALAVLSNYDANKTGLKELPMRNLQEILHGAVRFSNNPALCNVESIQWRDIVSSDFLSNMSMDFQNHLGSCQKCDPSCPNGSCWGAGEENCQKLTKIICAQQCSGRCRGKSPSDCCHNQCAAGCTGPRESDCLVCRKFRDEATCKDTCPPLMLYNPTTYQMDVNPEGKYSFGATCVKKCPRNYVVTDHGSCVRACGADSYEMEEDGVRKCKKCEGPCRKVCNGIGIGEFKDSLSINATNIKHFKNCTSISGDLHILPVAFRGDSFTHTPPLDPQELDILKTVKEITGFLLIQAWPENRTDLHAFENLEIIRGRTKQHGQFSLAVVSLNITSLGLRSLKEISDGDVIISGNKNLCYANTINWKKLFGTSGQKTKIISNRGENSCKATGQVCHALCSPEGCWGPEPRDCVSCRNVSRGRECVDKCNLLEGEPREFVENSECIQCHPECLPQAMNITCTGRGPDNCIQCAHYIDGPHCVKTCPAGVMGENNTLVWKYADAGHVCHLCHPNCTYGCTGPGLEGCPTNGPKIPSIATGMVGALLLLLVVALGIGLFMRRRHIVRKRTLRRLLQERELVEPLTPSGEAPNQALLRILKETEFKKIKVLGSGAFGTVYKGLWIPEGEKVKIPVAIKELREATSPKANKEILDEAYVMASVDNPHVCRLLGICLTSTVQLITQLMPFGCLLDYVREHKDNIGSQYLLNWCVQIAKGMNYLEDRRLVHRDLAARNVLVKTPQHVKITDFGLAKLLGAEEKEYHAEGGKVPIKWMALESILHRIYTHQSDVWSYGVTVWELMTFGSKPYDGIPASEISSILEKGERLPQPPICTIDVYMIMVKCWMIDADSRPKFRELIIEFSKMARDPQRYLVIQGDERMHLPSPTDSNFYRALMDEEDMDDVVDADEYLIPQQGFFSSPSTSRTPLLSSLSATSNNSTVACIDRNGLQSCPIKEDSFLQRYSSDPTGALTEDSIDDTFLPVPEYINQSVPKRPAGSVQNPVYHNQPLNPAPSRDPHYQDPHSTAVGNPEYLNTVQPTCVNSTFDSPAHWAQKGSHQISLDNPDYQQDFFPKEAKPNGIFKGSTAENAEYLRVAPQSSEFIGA
Procedure: […] were performed to measure phosphorylated EGFR levels using A431 cells (10% FBS). A431 (1.0*10^4cells/40 μl/well) cells were seeded in 384 well. Compounds were dissolved in DMSO, serially diluted in DMSO and then were added, mixed, and incubated for 4 hours at 37° C., […]. Following the 4-hours incubation, cells were stimulated for 10 minutes with EGF (Invitrogen, cat #PHG0311) at a final concentration of 30 ng/mL in the incubator. The media was aspirated and cells were lysed in 10 μL lysis buffer with protease and phosphatase inhibitors (PerkinElmer, cat #ALSU-PEGFR-A50K). The plates were placed on a shaker for 5 minutes and then incubated for 30 min at 4° C. for complete lysis. The lysate was transferred to an Optiplate (Perkin Elmer, cat #6007290).
Acceptor mix (PerkinElmer, cat #ALSU-PEGFR-A50K) was prepared just before use and 5 μL was dispensed to all the wells, followed by a 1.5-2 h incubation at room temperature in dark. The donor mix (PerkinElmer, cat #ALSU-PEGFR-A50K) was prepared under low light conditions prior to use and 5 μl of donor mix was added to all the wells under subdued lighting or green filters. The plates were placed on a shaker for 5 min, sealed, and incubated overnight at room temperature in dark. Plates were read on the Envision (PerkinElmer) using standard AlphaLISA settings.
The percentage of inhibition on EGFR phosphorylation was calculated following equation: % Inhibition=100×(LumHC−LumSample)/(LumHC−LumLC). The low and high controls (LC/HC) are generated from lysate from wells with cells treated with DMSO or […] Staurosporine (BioAustralis, cat #BIA-S1086), […]. IC50 values were calculated by fitting the Curve using XLfit (v5.3.1.3), equation 201: Y=Bottom+(Top−Bottom)/(1+10^((LogIC50−X)*HillSlope)).

phosphorylated ERBB2 (pERBB2), sequence (P04626 23-1255): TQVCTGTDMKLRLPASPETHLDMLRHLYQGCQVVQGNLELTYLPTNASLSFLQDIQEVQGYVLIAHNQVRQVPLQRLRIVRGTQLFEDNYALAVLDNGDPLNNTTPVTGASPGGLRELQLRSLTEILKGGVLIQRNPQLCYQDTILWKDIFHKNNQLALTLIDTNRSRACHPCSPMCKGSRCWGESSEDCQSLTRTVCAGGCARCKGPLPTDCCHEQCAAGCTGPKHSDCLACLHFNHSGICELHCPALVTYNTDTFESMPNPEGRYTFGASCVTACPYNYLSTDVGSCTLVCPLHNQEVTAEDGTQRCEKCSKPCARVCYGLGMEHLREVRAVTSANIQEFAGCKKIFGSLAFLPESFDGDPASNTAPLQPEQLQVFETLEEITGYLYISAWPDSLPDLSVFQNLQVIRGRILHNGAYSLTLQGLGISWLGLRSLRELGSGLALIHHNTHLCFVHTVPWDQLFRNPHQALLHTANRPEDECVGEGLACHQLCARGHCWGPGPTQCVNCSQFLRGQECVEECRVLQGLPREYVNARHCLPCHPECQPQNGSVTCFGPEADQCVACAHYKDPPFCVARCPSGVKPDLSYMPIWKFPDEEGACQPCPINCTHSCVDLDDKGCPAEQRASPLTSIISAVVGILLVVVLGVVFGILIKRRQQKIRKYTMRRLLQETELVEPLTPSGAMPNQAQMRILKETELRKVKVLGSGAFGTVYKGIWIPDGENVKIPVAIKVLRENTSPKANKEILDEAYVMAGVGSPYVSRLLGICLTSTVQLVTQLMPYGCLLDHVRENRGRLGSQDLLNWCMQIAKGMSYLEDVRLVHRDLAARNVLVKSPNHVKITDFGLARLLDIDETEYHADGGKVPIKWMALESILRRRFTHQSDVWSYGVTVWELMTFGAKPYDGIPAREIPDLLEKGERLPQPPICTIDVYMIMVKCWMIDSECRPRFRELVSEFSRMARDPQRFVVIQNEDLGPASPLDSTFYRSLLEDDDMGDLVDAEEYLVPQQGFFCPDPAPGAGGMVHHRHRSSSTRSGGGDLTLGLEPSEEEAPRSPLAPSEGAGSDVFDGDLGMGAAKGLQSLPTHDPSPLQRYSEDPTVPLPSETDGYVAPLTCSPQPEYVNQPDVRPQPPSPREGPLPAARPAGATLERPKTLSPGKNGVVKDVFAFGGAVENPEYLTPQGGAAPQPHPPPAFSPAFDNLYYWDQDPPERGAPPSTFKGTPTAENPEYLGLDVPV

Row | IC50 [1] [nM] | IC50 [2] [nM] | SMILES
1 | 8.84 | 177 | Cc1cc(Nc2ncnc3cc4c(nc23)N2CCN(C(=O)/C=C/CN(C)C)C(CO4)C2)ccc1Oc1cncc(F)c1 (stereo in doubt) [Compound 51, (E)-4-(dimethylamino)-1-((10S)-4-((4-((5-fluoropyridin-3-yl)oxy)-3-methylphenyl)amino)-7,8,10,11-tetrahydro-9H-6,10-methanopyrimido[4′,5′:5,6]pyrido[3,2-b][1,4,7]oxadiazonin-9-yl)but-2-en-1-one]
2 | 51.1 | 3390 | Cc1cc(Nc2ncnc3cc4c(nc23)N2CCN(C(=O)/C=C/C3(F)CN(C)C3)C(CO4)C2)ccc1Oc1ccn2ncnc2c1 (stereo in doubt) [Compound 53, (E)-1-((10S)-4-((4-([1,2,4]triazolo[1,5-a]pyridin-7-yloxy)-3-methylphenyl)amino)-7,8,10,11-tetrahydro-9H-6,10-methanopyrimido[4′,5′:5,6]pyrido[3,2-b][1,4,7]oxadiazonin-9-yl)-3-(3-fluoro-1-methylazetidin-3-yl)prop-2-en-1-one]

Second part, the compound before the results:

Row | SMILES | IC50 [1] [nM] | IC50 [2] [nM]
3 | Cc1cc(Nc2ncnc3cc4c(nc23)N2CCN(C(=O)/C=C/[C@H](C)N(C)C)C(CO4)C2)c(F)cc1Oc1ccn2ncnc2c1 (stereo in doubt) [Compound 47, (4S,E)-1-((10S)-4-((4-([1,2,4]triazolo[1,5-a]pyridin-7-yloxy)-2-fluoro-5-methylphenyl)amino)-7,8,10,11-tetrahydro-9H-6,10-methanopyrimido[4′,5′:5,6]pyrido[3,2-b][1,4,7]oxadiazonin-9-yl)-4-(dimethylamino)pent-2-en-1-one] | 29.2 | > 10000
4 | CNC/C=C/C(=O)N1CCN2CC1COc1cc3ncnc(Nc4cc(C)c(Oc5ccn6ncnc6c5)cc4F)c3nc12 (stereo in doubt) [Compound 49, (E)-1-((10S)-4-((4-([1,2,4]triazolo[1,5-a]pyridin-7-yloxy)-2-fluoro-5-methylphenyl)amino)-7,8,10,11-tetrahydro-9H-6,10-methanopyrimido[4′,5′:5,6]pyrido[3,2-b][1,4,7]oxadiazonin-9-yl)-4-(methylamino)but-2-en-1-one] | 31.5 | 2650
5 | Cc1cc(Nc2ncnc3cc4c(nc23)N2CCN(C(=O)/C=C/[C@@H](C)N(C)C)C(CO4)C2)c(F)cc1Oc1ccn2ncnc2c1 (stereo in doubt) [Compound 50, (4R,E)-1-((10S)-4-((4-([1,2,4]triazolo[1,5-a]pyridin-7-yloxy)-2-fluoro-5-methylphenyl)amino)-7,8,10,11-tetrahydro-9H-6,10-methanopyrimido[4′,5′:5,6]pyrido[3,2-b][1,4,7]oxadiazonin-9-yl)-4-(dimethylamino)pent-2-en-1-one] | 72.4 | > 10000
6 | [2H]C([2H])(/C=C/C(=O)N1CCN2CC1COc1cc3ncnc(Nc4cc(C)c(Oc5ccn6ncnc6c5)cc4F)c3nc12)N(C)C (stereo in doubt) [Compound 58, (E)-1-((10S)-4-((4-([1,2,4]triazolo[1,5-a]pyridin-7-yloxy)-2-fluoro-5-methylphenyl)amino)-7,8,10,11-tetrahydro-9H-6,10-methanopyrimido[4′,5′:5,6]pyrido[3,2-b][1,4,7]oxadiazonin-9-yl)-4-(dimethylamino)but-2-en-1-one-4,4-d2] | 5.5 | 869
7 | [2H]C([2H])([2H])N(C([2H])([2H])[2H])C([2H])([2H])/C=C/C(=O)N1CCN2CC1COc1cc3ncnc(Nc4cc(C)c(Oc5ccn6ncnc6c5)cc4F)c3nc12 (stereo in doubt) [Compound 59, (E)-1-((10S)-4-((4-([1,2,4]triazolo[1,5-a]pyridin-7-yloxy)-2-fluoro-5-methylphenyl)amino)-7,8,10,11-tetrahydro-9H-6,10-methanopyrimido[4′,5′:5,6]pyrido[3,2-b][1,4,7]oxadiazonin-9-yl)-4-(bis(methyl-d3)amino)but-2-en-1-one-4,4-d2] | 9 | 1380
